Test results taken from paper PMC12817916, “A small-molecule HSP90 inhibitor, NVP-HSP990, alleviates rotavirus infection” (Journal of Virology, 2025).
Read-outs that look alike come from different tables or passages of the source.

How the values were obtained:
RV SA11 (G3P[2]) strain = assay: In vitro assay of RV replication inhibition (PFA); assay type: cell-based, Rotavirus; conditions: MOI = 1, 24 h p.i., PFA, read-out: IC50
Protocol: (§1) For analysis of effects of different […] on RV replication in vitro, 10,000 MA104 cells, 30,000 Caco-2 cells, and 80,000 HT-29 cells in 100 µL complete DMEM medium were seeded in 96-well plates and cultured at 37°C and 5% CO2 for 24 h. Then the cells were infected with RV Wa or SA11 strains (MOI = 1 (PFU/cell)) for 1 h. After removing the viruses and washing cells two times with DMEM, 100 µL DMEM containing the indicated concentrations of drugs was added to each well, and the plates were incubated at 37°C and 5% CO2. At 24 h p.i., the infected cells and culture medium were collected, frozen/thawed twice, and subjected to centrifugation at 1,000 × g for 3 min at room temperature. Then, the supernatant was subjected to analysis of viral load by PFA. […] Dose-response data (drug concentrations as x-axis and normalized inhibition percentages as y-axis) were fitted to a dose-response inhibition model ([Inhibitor] vs normalized response – Variable slope). […] Model adequacy was validated using goodness-of-fit metrics (R^2 ≥ 0.95), 95% confidence intervals, and residual distribution analysis.
(§2) Wa/SA11 strains were titrated by PFA, which was carried out as described (3) with some modification. Briefly, confluent monolayers of MA104 cells in 24-well tissue culture plates were infected with 100 µL supernatants containing infectious RV particles which were serially diluted (10^1, 10^2, 10^3, and 10^4) with DMEM containing 1 µg/mL trypsin and penicillin (10,000 U/mL)-streptomycin (5 µg/mL) (DMEM-T) for 1 h at 37°C. Then 400 µL agarose overlay (0.8% agarose in 1×DMEM-T) was added and the plates were incubated at 37℃ and 5% CO2 for 5 days. The cells in each well were fixed by 1 mL 4% paraformaldehyde (Sangon Biotech, China) overnight (> 12 h) at room temperature. Then, the paraformaldehyde and agarose were removed and the monolayers were stained with 0.5 ml of a 1% (v/v) crystal violet (Sangon Biotech, China) diluted in distilled water for 10 min at room temperature. Then, the plates were drained and dried, and the plaques were enumerated. As the EDIM strain is not able to grow in cell culture, it was titrated by qPCR analysis as described (4) with EDIM VP6 gene as the target.

RV Wa (G1P[8]) strain = assay: In vitro assay of RV replication inhibition (PFA); assay type: cell-based, Rotavirus; conditions: MOI = 1, 24 h p.i., PFA, read-out: IC50
Protocol: as §1, §2

RV EDIM strain = assay: RV EDIM diarrhea model in suckling mice (treatment after diarrhea onset); assay type: in vivo, BALB/c suckling mice
Protocol: BALB/c mice were purchased from Gempharmatech Inc. (Suzhou, China) and housed under SPF conditions (22 ± 1°C, 12 h light/dark cycle). Suckling mice were obtained by mating male and female adult BALB/c mice (12- to 16-week-old). Only the 7-day-old BALB/c suckling mice with body weights ranging from 2.5 g to 4.5 g were selected for RV diarrhea models. For induction of RV diarrhea, 1 × 10^6 PFU of SA11 strain or 10 × DD50 of EDIM strain in 20 µL PBS was orally inoculated using a pipette tip to 7-day-old BALB/c suckling mice regardless of their sexes, as sex has no significant influence on RV diarrhea occurrence. We used a scoring system to evaluate fecal consistency and color as described with some modification ([27]): no stool or brown formed stool (1 point); brown soft stool (2 points); yellow soft stool (3 points); and yellow watery stool (4 points). Mice with scores of ≥2 meant diarrhea occurrence, while mice with scores of 1 meant no diarrhea. At the end of each experiment, all infected or drug-treated suckling mice were humanely euthanized via CO2 asphyxiation.
Seven-day-old BALB/c suckling mice meeting the weight criteria within each litter were randomly assigned to experimental groups. Each litter was allocated to ensure one to three suckling mice per experimental group (variations dependent on the total number of groups). Data from suckling mice assigned to the same group across multiple litters were aggregated to achieve a total sample size of n = 3–6 per experimental group. Then, the suckling mice were orally inoculated with 1 × 10^6 PFU of the SA11 strain or 10 × DD50 of the EDIM strain, or with an equal amount of PBS as mock infection. For SA11 infection, the suckling mice were orally treated once with indicated doses of drugs or with an equal volume of DMSO as control at 2 h p.i. For EDIM infection, the suckling mice were orally treated with 0.2 mg/kg/day NVP-HSP990, 30 mg/kg/day ribavirin, or an equal amount of DMSO as control from 2 days post-infection (d p.i.) to indicated time points. Diarrhea scores and body weight were monitored from day 0 to day 7 post-infection in the SA11 infection model, and from day 0 to day 9 post-diarrhea occurrence (2–11 d p.i.) in the EDIM infection model. Blinding was applied throughout data collection and analysis.
The RV-infected suckling mice were sacrificed by CO2 asphyxiation at the indicated times, and small intestines (including duodenum, jejunum, and ileum) or colon was homogenized in 0.3 mL DMEM, centrifuged at 12,000 × g for 5 min at 4°C, and the supernatant was collected. Virus contents in the supernatant were titrated with PFA as described above. Viral antigens in the supernatant were detected with enzyme-linked immunosorbent assay (ELISA) kits for RV (CUSABIO, China) following the manufacturer’s instructions. For qPCR analysis of RV protein expression, the intestines were longitudinally split and washed in 1 mL DMEM by shaking for 30 s. Then, the tissues were cut into 0.5 cm segments, incubated in Hank’s buffer containing 2.5 mM EDTA-Na2 and 1 mM dithiothreitol (Sangon Biotech, China) at 37°C with rotation at 200 rpm for 30 min, filtered with a 70 µm strainer. Then the epithelial cells were pelleted by centrifugation at 500 × g for 5 min, purified with 20% Percoll (Cytiva, Sweden), and lysed in Trizol for RNA extraction and further qPCR analysis.
The jejunum and ileum of suckling mice were fixed in 4% paraformaldehyde for 24 h, washed with PBS twice, and then subjected to paraffin embedding and slicing at 5 µm thickness. The sections were stained with hematoxylin and eosin (Beyotime, China) and observed with an Olympus BX51 microscope, and the data were processed by CaseViewer 2.4 software. For immunohistochemistry analysis, the fixed tissues were dehydrated in 30% sucrose, embedded in Optimal Cutting Temperature compound, frozen with liquid nitrogen, and cryosliced at 10 µm thickness. […]

`COc1cccc(-c2cc(F)ccc2[C@H]2Cc3nc(N)nc(C)c3C(=O)N2)n1` [NVP-HSP990] showed an IC50 (RV SA11 (G3P[2]) strain; SA11 strain in Caco-2 cells) of 7.47 ± 4.84 nM, an IC50 (RV SA11 (G3P[2]) strain; SA11 strain in HT-29 cells) of 3.85 ± 1.16 nM and an IC50 (RV SA11 (G3P[2]) strain; SA11 strain in MA104 cells) of 0.84 ± 0.17 nM. For the same compound, the IC50 (RV Wa (G1P[8]) strain; Wa strain in Caco-2 cells) was 4 ± 1.28 nM, the IC50 (RV Wa (G1P[8]) strain; Wa strain in HT-29 cells) was 4.69 ± 0.9 nM and the IC50 (RV Wa (G1P[8]) strain; Wa strain in MA104 cells) was 0.96 ± 0.13 nM. The “therapeutic effect on diarrhea compared to ribavirin” value (RV EDIM strain; 0.2 mg/kg/day NVP-HSP990 vs 30 mg/kg/day ribavirin, oral, 5 days) was “superior therapeutic effect”, the “weight gain in EDIM-infected suckling mice” value (RV EDIM strain; 0.2 mg/kg/day oral for 5 days, observed for another 5 days) was “did not adversely affect” and the diarrhea scores (RV EDIM strain; 0.2 mg/kg/day oral for 5 days, observed for another 5 days, compared to untreated group) was “significantly reduced”. The “foamy degeneration and viral infection in small intestinal epithelial cells” value (RV EDIM strain; 0.2 mg/kg/day oral from 2 d p.i., 3 consecutive days, compared to untreated controls) was “marked reduction”, the “RV viral antigens in colonic contents” value (RV EDIM strain; 0.2 mg/kg/day oral, 3 days, ELISA, vs untreated or ribavirin-treated (30 mg/kg/day) groups) was “significantly lower” and the “viral antigen (VP6 and NSP4) expression in intestinal epithelial cells” value (RV EDIM strain; 0.2 mg/kg/day oral, 3 days, qPCR, compared to untreated group) was “significantly reduced”.
